pIC50: −log10 of the molar value.
What was measured:
Assay type in all cases: cell-based
[1] = tested on: MRC-5; assay: 72 h MTT cell viability MRC-5 (normal lung); conditions: Homo sapiens, MRC5; MRC-5, normal lung cell line; read-out: Cell Viability IC50 MRC-5
Source text: (§1) MIT cytotoxicity assay. The compounds of the invention were subjected to a standard cellular proliferation assay using human cell lines. HeLa cells (Human cervix adenocarcinoma cell line, ATCC NO, CCL-2); A549 cells (Human lung carcinoma cells line, ATCC NO, CCL-185); U2OS cells (Human osteosarcoma cell line, ATCC NO, HTB-96); Eca-109 cells (Human esophageal carcinoma cell line); HepG2 (Human hepatocellular liver carcinoma cell line, ATCC NO, HB-8065); K562 cells (Human chronic myelogenous leukemia cell line, ATCC NO, CCL-243); SK-MEL-28 (Human malignant melanoma cell line, ATCC NO, HTB-72); Molt-4 (Human acute lymphoblastic leukemia cell line, ATCC NO, CRL-1582); H460 (Human large cell lung cancer cell line, ATCC NO, HTB-177); MDA-MB-231 (Human breast adenocarcinoma cell line, ATCC NO, HTB-26); MCF7 (Human breast adenocarcinoma cell line, ATCC NO, HTB-22); ACHN (Human renal cell adenocarcinoma cell line, ATCC NO, CRL-1611); PC-3M (Human prostate adenocarcinoma cell line, ATCC NO CRL-1435); HL60 (Human acute promyelocytic leukemia cell line, ATCC NO, CCL-240); THP-1 (Human acute monocytic leukemia, ATCC NO, TIB-202); Jurkat (Human acute T cell leukemia cell line, ATCC NO, CRL-2063); HCT-116 (Human colorectal carcinoma cell line, ATCC NO, CCL-247); HT-29 (Human colorectal adenocarcinoma cell line, ATCC NO, HTB-38™); WI-38 (Human normal lung cell line, ATCC NO, CCL-75); MRC-5 (Human normal lung cell line, ATCC NO, CCL-171).
(§2) HepG2, MDA-MB-231, WI-38 and MRC-5 cells were obtained from Shanghai Institute of Cell Biology, Chinese Academy of Sciences (Shanghai 200031, China). A549, HeLa, K562, MCF7, ACHN, H460, U2OS, Eca-109, MCF7, HL60, THP-1, Jurkat, HCT-116, HT-29, PC-3M, SK-MEL-28, Molt-4, H460 and […] cells were purchased from ATCC (American Type Culture Collection, USA).
(§3) Standard 72 h MTT (thiazolye blue; 3-[4,5-dimethylthiazol-2-yl]-2,5-diphenyltetrazolium bromide) assays were performed. Briefly, the cell lines used in this study were recovered and cultured according to the conditions recommended. 4000 cells per well were seeded into 96-well plates according to doubling time and incubated overnight at 37° C. Compounds were prepared in DMSO and a ½ dilution series in 100 μl cell culture media, added to cells (in duplicates) with the final DMSO concentration of 0.025%, and incubated for 72 hrs at 37° C. MTT solution (5 mg/ml) was added at 10 μl per well and incubated in the dark at 37° C. for 4 hr. Culture medium and MTT solution was removed. MTT dye was solubilised with 100 μl per well of DMSO with agitation. Absorbance was read at 562 nm and data analyzed using Sigmoid curve-fitting software Origin 6.0 (MicroCal, LLC, USA) to determine IC50 value.

[2] = tested on: A549 cells; assay: 72 h MTT cytotoxicity assay A549; conditions: Homo sapiens; A549, 72 hrs
Outline: (§4)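 4000 cells/well, overnight 37° C; ½-step dilutions, duplicates, 0.025% DMSO final; 72 h 37° C; MTT 4 h dark; DMSO solubilisation; A562; sigmoid IC50.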

[3] = tested on: K562 cells; assay: 72 h MTT cytotoxicity assay K562; conditions: Homo sapiens; K562, 72 hrs
Source text: as §1, §2, §3

[4] = tested on: Molt-4-luc; assay: 72 h MTT cytotoxicity assay Molt-4-luc; conditions: Homo sapiens
Outline: as §4

[5] = tested on: HeLa cells; assay: 72 h MTT cytotoxicity assay HeLa; conditions: Homo sapiens
Source text: as §1, §2, §3

[6] = tested on: ACHN-luc; assay: 72 h MTT cell viability ACHN-luc; conditions: Homo sapiens
Outline: as §4

[7] = tested on: Eca-109 cells; assay: 72 h MTT cytotoxicity assay Eca-109; conditions: Homo sapiens; Eca-109, 72 hrs
Outline: as §4

[8] = tested on: HL-60; assay: 72 h MTT cell viability HL-60; conditions: Homo sapiens
Outline: as §4

[9] = tested on: U2OS cells; assay: 72 h MTT cytotoxicity assay U2OS; conditions: Homo sapiens
Outline: as §4

[10] = tested on: HCT 116; assay: 72 h MTT cell viability HCT 116; conditions: Homo sapiens, read-out: Cell Viability IC50 HCT 116
Source text: as §1, §2, §3

[11] = tested on: HepG2; assay: 72 h MTT cytotoxicity assay HepG2; conditions: Homo sapiens; HepG2, 72 hrs
Outline: as §4

[12] = tested on: PC-3M-luc; assay: 72 h MTT cell viability PC-3M-luc; conditions: Homo sapiens
Outline: as §4

[13] = tested on: Jurkat; assay: 72 h MTT cell viability Jurkat; conditions: Homo sapiens, read-out: Cell Viability IC50 Jurkat
Source text: as §1, §2, §3

[14] = tested on: MDA-MB-231-luc; assay: 72 h MTT cell viability MDA-MB-231-luc; conditions: Homo sapiens
Outline: as §4

[15] = tested on: MCF7; assay: 72 h MTT cytotoxicity assay MCF7; conditions: Homo sapiens; MCF7, 72 hrs
Source text: as §1, §2, §3

[16] = tested on: THP-1; assay: 72 h MTT cell viability THP-1; conditions: Homo sapiens, THP-1; read-out: Cell Viability IC50 THP-1
Source text: as §1, §2, §3

pIC50 [6]: < 5.00 | pIC50 [8]: 5.47 | pIC50 [10]: < 5.00 | pIC50 [12]: < 5.00 | pIC50 [13]: 5.47 | pIC50 [14]: 5.33 | pIC50 [16]: 5.68
Structure (SMILES): CCn1cc(-c2ccnc(Nc3cccc(C#N)c3)n2)c2cccnc21 [Compound 20, 3-(4-(1-Ethyl-1H-pyrrolo[2,3-b]pyridin-3-yl)pyrimidin-2-ylamino)benzonitrile]
pIC50 [1]: 4.82 | pIC50 [2]: 5.51 | pIC50 [3]: 5.21 | pIC50 [4]: 5.46 | pIC50 [5]: 5.26 | pIC50 [7]: < 5.00 | pIC50 [9]: < 5.00 | pIC50 [11]: 5.74 | pIC50 [15]: < 5.00

From patent US8309550B2, “Kinase inhibitors and their use as pharmaceutical agents” (Shanghai Genomics, Inc., priority 2011, dated 2012)
